Here are results for 11 compounds from US7074789B2, “Kinase inhibitors” (Amgen Inc., priority 1999, dated 2006).

Read-outs that look alike come from different tables or passages of the source.

Holding throughout (format): biochemical
The target of one experiment is T1, Kdr (Homo sapiens, UniProt P35968).
T1 construct: Kinases are expressed as either kinase domains or full length constructs; made in house
In words: Kinase inhibition assay (33P transfer), Kdr. Particulars: for IC50: read-out: KDR-1. The method in brief:
(§1)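 Each kinase, expressed as a GST- or polyHis-tagged domain or full-length protein, phosphorylated plate-attached poly(Glu,Tyr) 4:1 or poly(Arg,Ser) 3:1 using 33P-ATP. Bound radioactivity was measured by scintillation after a 0.5% phosphoric acid wash.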

A further experiment concerns the target T2, Zap-70 (Homo sapiens, UniProt P43403).
T2 construct: Kinases are expressed as either kinase domains or full length constructs; made in house
T2 sequence (P43403 1-619): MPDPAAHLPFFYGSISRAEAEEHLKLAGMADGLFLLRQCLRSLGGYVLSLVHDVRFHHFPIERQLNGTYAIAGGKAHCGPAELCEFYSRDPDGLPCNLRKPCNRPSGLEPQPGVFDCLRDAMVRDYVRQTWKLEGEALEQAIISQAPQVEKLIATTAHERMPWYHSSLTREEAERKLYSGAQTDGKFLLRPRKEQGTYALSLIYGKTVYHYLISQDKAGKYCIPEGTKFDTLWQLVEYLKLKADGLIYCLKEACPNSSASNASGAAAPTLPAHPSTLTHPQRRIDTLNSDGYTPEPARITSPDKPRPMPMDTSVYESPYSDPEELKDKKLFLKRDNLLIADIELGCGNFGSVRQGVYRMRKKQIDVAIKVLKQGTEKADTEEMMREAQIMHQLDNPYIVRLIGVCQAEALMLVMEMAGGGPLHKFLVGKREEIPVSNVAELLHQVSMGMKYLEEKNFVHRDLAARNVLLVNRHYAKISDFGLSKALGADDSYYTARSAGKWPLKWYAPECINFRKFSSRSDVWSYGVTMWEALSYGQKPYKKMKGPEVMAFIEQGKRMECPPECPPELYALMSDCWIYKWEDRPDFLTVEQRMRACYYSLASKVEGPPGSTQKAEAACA
In words: Kinase inhibition assay (33P transfer), Zap-70. The following applies: for IC50: read-out: Zap-1. The method in brief:
as §1

The next experiment has as its target T3, Itk (Homo sapiens, UniProt Q08881).
T3 construct: Kinases are expressed as either kinase domains or full length constructs; made in house
T3 sequence (Q08881 1-620): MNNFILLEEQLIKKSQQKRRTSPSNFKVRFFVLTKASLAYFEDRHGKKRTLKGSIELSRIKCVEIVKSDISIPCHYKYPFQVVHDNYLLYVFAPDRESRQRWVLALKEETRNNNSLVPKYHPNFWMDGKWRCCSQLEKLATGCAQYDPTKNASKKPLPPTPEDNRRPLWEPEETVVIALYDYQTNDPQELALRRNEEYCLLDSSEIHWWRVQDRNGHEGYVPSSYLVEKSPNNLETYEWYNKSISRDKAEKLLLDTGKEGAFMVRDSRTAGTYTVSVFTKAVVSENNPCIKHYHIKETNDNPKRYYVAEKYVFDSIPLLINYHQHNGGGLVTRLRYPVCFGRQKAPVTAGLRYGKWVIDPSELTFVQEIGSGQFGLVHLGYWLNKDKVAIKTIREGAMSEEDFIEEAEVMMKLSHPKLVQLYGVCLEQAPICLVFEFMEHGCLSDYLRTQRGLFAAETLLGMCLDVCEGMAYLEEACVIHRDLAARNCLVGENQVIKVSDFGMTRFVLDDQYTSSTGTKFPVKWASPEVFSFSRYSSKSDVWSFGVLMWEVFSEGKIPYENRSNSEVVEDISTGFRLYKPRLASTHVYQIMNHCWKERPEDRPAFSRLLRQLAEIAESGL
The experiment can be described thus: Kinase inhibition assay (33P transfer), Itk. The following applies: for IC50: read-out: Itk-1. In outline:
(§2)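 Read-out: scintillation counts of 33P moved from ATP onto synthetic peptide polymer coated on the well surface, after washing with 0.5% phosphoric acid. Enzymes were tagged (GST or polyHistidine) and came from bacterial or insect-cell expression. IC50 marks 50% loss of incorporated label.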

For another experiment, the target named is T4, Lck (Homo sapiens, UniProt P06239).
T4 construct: Kinases are expressed as either kinase domains or full length constructs; made in house
The experiment can be described thus: Kinase inhibition assay (33P transfer), Lck. The following applies: for IC50: read-out: Lck-1. In outline: as §1

For another experiment, the target named is T5, c-Met (Homo sapiens, UniProt P08581).
T5 construct: Kinases are expressed as either kinase domains or full length constructs; made in house
The experiment can be described thus: Kinase inhibition assay (33P transfer), c-Met. Particulars: Table 2, kinase inhibition class; for IC50: read-out: Met-1. In outline:
as §2

Another experiment addresses T6, AKT (Homo sapiens, UniProt Q9Y243).
T6 construct: Kinases are expressed as either kinase domains or full length constructs; made in house
In words: Kinase inhibition assay (33P transfer), AKT. The following applies: Table 2, kinase inhibition class; for IC50: read-out: AKT3-1. In outline:
as §1

In the next experiment the target is T7, EGFR (Homo sapiens, UniProt P00533).
T7 construct: Kinases are expressed as either kinase domains or full length constructs; made in house
In words: Kinase inhibition assay (33P transfer), EGFR. The following applies: Table 2, kinase inhibition class; for IC50: read-out: EGFR-1. In outline: as §2

T7 sequence (P00533 25-1210, species assumed): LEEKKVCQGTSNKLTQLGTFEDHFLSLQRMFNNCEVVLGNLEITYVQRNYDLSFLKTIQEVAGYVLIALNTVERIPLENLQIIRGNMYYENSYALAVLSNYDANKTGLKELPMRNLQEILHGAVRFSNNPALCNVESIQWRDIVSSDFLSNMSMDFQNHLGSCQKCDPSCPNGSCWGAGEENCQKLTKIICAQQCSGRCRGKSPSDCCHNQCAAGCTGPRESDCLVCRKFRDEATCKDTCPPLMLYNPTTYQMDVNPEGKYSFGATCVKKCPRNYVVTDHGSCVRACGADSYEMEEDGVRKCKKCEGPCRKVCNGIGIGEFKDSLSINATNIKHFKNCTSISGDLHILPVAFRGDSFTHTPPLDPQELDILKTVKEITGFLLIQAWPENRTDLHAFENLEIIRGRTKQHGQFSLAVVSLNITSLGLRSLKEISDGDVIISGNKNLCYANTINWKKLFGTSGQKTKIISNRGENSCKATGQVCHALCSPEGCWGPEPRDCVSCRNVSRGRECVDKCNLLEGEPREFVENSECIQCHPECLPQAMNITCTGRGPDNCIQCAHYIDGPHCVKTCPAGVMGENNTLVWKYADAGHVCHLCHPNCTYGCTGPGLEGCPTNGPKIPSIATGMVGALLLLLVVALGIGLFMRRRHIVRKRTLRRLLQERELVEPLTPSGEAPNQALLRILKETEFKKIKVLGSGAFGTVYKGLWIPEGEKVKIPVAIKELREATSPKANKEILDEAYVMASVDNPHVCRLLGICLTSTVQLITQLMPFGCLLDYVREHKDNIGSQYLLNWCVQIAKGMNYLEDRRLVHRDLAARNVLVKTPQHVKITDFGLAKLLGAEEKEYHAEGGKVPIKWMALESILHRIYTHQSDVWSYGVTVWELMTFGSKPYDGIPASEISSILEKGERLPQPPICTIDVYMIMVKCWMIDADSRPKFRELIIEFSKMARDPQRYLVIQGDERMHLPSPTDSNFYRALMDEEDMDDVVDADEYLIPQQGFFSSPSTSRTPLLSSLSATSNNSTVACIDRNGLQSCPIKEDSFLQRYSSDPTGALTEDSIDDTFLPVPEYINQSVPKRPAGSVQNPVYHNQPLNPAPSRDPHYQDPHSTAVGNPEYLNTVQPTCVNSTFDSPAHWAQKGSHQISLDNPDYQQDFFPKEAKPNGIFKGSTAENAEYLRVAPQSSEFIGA
T1 sequence (P35968 20-1356, species assumed): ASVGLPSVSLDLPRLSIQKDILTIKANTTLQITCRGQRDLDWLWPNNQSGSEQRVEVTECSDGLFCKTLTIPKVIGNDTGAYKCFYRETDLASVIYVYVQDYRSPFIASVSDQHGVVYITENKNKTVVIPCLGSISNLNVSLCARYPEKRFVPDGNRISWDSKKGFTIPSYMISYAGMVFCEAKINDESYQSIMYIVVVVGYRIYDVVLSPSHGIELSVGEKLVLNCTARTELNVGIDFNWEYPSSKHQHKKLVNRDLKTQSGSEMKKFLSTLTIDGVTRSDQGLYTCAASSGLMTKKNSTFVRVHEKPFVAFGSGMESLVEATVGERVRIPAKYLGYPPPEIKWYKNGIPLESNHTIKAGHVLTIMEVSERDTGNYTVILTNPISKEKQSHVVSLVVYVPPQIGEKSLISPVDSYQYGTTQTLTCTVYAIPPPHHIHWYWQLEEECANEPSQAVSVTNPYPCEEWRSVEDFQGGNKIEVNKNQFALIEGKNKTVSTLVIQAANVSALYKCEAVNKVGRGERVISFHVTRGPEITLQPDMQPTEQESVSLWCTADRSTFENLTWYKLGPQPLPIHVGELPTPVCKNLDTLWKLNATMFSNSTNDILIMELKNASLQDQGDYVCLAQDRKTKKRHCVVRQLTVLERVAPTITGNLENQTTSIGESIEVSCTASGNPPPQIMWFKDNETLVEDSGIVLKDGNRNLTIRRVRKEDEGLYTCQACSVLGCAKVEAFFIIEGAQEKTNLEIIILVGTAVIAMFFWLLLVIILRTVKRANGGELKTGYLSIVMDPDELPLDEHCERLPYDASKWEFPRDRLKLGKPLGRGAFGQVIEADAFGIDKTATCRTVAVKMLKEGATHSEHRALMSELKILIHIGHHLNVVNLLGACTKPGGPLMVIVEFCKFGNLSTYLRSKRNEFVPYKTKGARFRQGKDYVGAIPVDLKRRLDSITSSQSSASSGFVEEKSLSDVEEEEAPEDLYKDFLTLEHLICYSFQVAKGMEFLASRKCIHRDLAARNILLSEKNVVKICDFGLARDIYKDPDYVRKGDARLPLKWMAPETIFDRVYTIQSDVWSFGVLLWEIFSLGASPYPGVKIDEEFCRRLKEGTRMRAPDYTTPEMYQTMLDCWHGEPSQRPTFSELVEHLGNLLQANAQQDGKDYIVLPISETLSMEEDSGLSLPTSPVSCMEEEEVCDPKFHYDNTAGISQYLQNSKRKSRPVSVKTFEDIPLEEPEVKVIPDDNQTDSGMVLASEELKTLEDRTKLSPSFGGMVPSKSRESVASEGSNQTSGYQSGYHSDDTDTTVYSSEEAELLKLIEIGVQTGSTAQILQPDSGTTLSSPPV
T5 sequence (P08581 25-1390): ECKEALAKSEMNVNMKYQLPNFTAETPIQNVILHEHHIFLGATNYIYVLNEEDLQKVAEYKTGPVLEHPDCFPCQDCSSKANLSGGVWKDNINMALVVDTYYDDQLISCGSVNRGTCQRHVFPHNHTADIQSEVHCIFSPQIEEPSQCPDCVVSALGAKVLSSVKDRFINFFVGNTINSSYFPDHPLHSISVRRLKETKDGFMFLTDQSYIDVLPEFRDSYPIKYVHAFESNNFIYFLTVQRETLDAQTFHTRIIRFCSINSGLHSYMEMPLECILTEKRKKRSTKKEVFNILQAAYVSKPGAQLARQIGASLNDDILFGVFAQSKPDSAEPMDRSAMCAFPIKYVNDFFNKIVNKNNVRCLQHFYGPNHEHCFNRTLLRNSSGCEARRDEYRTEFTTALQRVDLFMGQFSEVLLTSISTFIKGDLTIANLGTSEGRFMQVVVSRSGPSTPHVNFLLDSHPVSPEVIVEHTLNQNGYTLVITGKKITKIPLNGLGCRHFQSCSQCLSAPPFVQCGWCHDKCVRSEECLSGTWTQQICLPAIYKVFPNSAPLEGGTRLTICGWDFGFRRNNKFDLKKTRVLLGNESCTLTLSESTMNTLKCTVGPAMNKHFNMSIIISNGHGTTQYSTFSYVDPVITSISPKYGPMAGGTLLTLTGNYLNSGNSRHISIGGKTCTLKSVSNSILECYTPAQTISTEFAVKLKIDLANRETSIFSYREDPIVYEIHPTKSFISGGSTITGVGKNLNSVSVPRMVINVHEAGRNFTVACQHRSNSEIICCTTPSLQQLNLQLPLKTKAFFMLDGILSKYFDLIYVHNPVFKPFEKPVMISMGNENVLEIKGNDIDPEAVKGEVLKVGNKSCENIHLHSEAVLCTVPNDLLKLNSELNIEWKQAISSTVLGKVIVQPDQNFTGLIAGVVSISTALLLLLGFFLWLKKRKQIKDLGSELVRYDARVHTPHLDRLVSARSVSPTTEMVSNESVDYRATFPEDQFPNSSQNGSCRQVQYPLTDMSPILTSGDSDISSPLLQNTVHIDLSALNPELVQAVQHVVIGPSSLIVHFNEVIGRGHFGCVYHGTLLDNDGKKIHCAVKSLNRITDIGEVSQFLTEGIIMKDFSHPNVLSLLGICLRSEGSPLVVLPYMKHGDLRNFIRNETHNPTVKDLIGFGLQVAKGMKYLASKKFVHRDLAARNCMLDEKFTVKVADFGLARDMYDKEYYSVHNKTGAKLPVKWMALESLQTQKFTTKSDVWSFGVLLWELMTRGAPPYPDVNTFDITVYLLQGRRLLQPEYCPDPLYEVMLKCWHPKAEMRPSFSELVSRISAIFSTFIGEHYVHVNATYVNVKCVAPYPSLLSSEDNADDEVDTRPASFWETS
T6 sequence (Q9Y243 whole entry, the tested form may be a part): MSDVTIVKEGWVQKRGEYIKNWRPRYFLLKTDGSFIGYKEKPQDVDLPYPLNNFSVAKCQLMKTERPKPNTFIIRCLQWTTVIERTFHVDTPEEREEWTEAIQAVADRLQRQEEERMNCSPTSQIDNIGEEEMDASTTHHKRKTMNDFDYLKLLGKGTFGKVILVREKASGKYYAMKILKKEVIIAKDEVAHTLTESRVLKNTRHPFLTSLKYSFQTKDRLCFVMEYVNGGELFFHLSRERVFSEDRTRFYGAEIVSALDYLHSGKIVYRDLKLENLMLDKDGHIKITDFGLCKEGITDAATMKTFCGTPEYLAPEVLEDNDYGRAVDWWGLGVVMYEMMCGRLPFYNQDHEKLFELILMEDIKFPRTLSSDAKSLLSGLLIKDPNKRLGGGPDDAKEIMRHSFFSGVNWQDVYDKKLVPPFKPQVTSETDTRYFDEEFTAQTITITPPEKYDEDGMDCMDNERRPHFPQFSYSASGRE
T4 sequence (P06239 whole entry, species assumed, the tested form may be a part): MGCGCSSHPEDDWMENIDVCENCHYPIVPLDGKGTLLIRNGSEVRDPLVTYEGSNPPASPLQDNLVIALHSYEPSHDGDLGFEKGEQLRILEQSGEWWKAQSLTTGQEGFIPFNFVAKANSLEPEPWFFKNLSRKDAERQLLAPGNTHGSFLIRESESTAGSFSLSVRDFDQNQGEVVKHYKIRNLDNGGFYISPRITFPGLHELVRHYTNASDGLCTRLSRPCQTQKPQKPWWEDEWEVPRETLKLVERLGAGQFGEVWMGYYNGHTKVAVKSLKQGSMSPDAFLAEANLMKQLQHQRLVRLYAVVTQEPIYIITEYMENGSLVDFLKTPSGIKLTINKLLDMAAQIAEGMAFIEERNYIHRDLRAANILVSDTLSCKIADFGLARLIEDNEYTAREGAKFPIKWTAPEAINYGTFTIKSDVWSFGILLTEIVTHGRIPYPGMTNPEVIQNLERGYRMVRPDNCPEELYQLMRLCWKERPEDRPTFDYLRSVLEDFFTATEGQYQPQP

Turning to `O=c1[nH]c2ccccc2n1-c1ncnc(Nc2cccc3cccnc23)n1` [Compound 688], the IC50 on Kdr is more than 12.7 µM; at Zap-70 it was 6.75 to 9.85 µM; on Itk, more than 12.7 µM; on Lck it was more than 12.7 µM; at c-Met it was more than 12.7 µM; on AKT, more than 12.7 µM. In addition, the IC50 at EGFR was more than 12.7 µM.

As for `CC(=O)Nc1ccc(Nc2ncnc(-n3c(N)nc4ccccc43)n2)cc1` [Compound 475], the IC50 at Kdr is less than 1.11 µM; on Zap-70 it was more than 12.5 µM; at Itk it was 1.11 to 6.66 µM; on Lck, 1.11 to 6.66 µM; on c-Met, 6.66 to 9.71 µM; at AKT it was more than 12.5 µM. On EGFR, the IC50 is more than 12.5 µM.

With `COc1cc(Nc2ncnc(-c3cccnc3NCCN)n2)cc(OC)c1OC` [Compound 1074], on Kdr, the KDR-1 result is “B (B>0.4 and <2.4 ug/mL)”. Moreover, the Zap-1 result at Zap-70 was “E (E>4.5 ug/mL)”. The Itk-1 result on Itk is listed as “E (E>4.5 ug/mL)”. Further, the Lck-1 entry on Lck is “C (C>2.4 and <3.5 ug/mL)”. Besides, the Met-1 entry at c-Met is “E (E>4.5 ug/mL)”. Further, the AKT3-1 result on AKT was “E (E>4.5 ug/mL)”. The EGFR-1 entry at EGFR is “E (E>4.5 ug/mL)”.

Take `COc1cc(Nc2ncnc(-n3c(NC(=O)c4ccccc4)nc4ccccc43)n2)cc(OC)c1OC` [Compound 435]: the IC50 at Kdr (Table 3), at Zap-70 (Table 3), at Itk (Table 3), at Lck (Table 3), at c-Met and at AKT was more than 9.04 µM in each case. Moreover, at EGFR, the IC50 was more than 9.04 µM.

For `COc1ccc(Nc2ncnc(-n3c(=O)[nH]c4ccccc43)n2)cn1` [Compound 489], the IC50 on Kdr, at Zap-70, at Itk, at Lck, at c-Met and on AKT was more than 13.4 µM each time. Moreover, the IC50 at EGFR is more than 13.4 µM.

With `O=c1[nH]c2ccccc2n1-c1ncnc(Nc2ccncc2)n1` [Compound 488], the IC50 on Kdr was 1.31 to 7.86 µM; on Zap-70, more than 14.7 µM; on Itk, more than 14.7 µM; on Lck, more than 14.7 µM; at c-Met it was more than 14.7 µM; on AKT it was more than 14.7 µM. In addition, the IC50 on EGFR was more than 14.7 µM.

With `O=C(Nc1cccc(Nc2ncnc(-n3c(=O)[nH]c4ccccc43)n2)c1)O[C@@H]1CCOC1` [Compound 455], the IC50 is 0.923 to 5.54 µM on Kdr (Table 3); more than 10.4 µM on Zap-70 (Table 3); more than 10.4 µM at Itk (Table 3); more than 10.4 µM on Lck (Table 3); more than 10.4 µM at c-Met; more than 10.4 µM at AKT. For the same compound, on EGFR, the IC50 fell in the range of 5.54 to 8.08 µM.

Consider `COc1cc(Nc2ncnc(-n3c(=O)sc4cc(Br)ccc43)n2)cc(OC)c1OC` [Compound 426], for which the IC50 on Kdr (Table 3), on Zap-70 (Table 3), on Itk (Table 3), at Lck (Table 3), at c-Met and at AKT was more than 9.18 µM each time. The IC50 on EGFR is more than 9.18 µM.

`COc1cc(Nc2ncnc(-c3ccc(N4CCNCC4)nc3)n2)cc(OC)c1OC` [Compound 436]: the IC50 at Kdr (Table 3) is 8.26 to 10.6 µM; on Zap-70 (Table 3) it was more than 10.6 µM; at Itk (Table 3), more than 10.6 µM; on Lck (Table 3) it was more than 10.6 µM; at c-Met, more than 10.6 µM; on AKT, more than 10.6 µM. The IC50 on EGFR fell in the range of 8.26 to 10.6 µM.

With `NS(=O)(=O)c1ccc(CNc2ncnc(-n3c(=O)[nH]c4ccccc43)n2)cc1` [Compound 456], the IC50 on Kdr (Table 3), on Zap-70 (Table 3), on Itk (Table 3), on Lck (Table 3), at c-Met and at AKT was more than 11.3 µM throughout. The IC50 on EGFR was more than 11.3 µM.

Regarding `CNc1ncnc(Nc2cc(OC)c(OC)c(OC)c2)n1` [Compound 409], the IC50 on Kdr (Table 3) is more than 15.4 µM; at Zap-70 (Table 3) it was more than 15.4 µM; at Itk (Table 3) it was more than 15.4 µM; at Lck (Table 3) it was 12 to 15.4 µM; on c-Met, more than 15.4 µM; at AKT, more than 15.4 µM. Besides, at EGFR, the IC50 was more than 15.4 µM.
